The values that follow are results of earlier work, collected in patent US9301957B2, “Immediate release 4-methyl-3-4[[4-(3-pyridinyl)-2-pyrimidinyl]amino]-N-[5-(4-methyl-1H-imidazol-1-YL)-3-(trifluoromethyl)phenyl] benzamide formulation” (Novartis AG, priority 2011, dated 2016).

For series [1] the following is noted: nilotinib and its salts.
The conditions of series [2]: unit dosage given shortly after food, compared to a fasted state.

Turning to `Cc1cn(-c2cc(NC(=O)c3ccc(C)c(Nc4nccc(-c5cccnc5)n4)c3)cc(C(F)(F)F)c2)cn1` [nilotinib, 4-Methyl-3-[[4-(3-pyridinyl)-2-pyrimidinyl]amino]-N-[5-(4-methyl-1H-imidazol-1-yl)-3-(trifluoromethyl)phenyl]benzamide], the water solubility entry in series [1] is recorded as “poorly water soluble”. Further, in series [2], the “systemic exposure, as reflected by AUC and Cmax” value is on record as “increases markedly”.
